Measurements from patent US6472348B1, “Pyridone derivatives and herbicides” (Kumiai Chemical Industry Co., Ltd., priority 1996, dated 2002).

Legend:
Assay type in all cases: in vivo
barnyardgrass (Ec) [1] = assay: Test Example 1: herbicidal effects by paddy field soil treatment; details: 100 g of the active ingredient per 10 ares, 21st day after the application, index 0-5 of Table 47;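 note: grade of growth control; 5 = at least 90%; 4 = 70 to 90%; 3 = 50 to 70%; 2 = 30 to 50%; 1 = 10 to 30%; 0 = under 10%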
Summary of the method: (§1)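 Greenhouse pot test in flooded paddy soil, dosed at 100 g a.i. per 10 ares; effect scored on day 21.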

bulrush (Sc) = assay: as above; details: 100 g of the active ingredient per 10 ares, 21st day after the application, index 0-5 of Table 47;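 note: grade of growth control; 5 = at least 90%; 4 = 70 to 90%; 3 = 50 to 70%; 2 = 30 to 50%; 1 = 10 to 30%; 0 = under 10%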
Summary of the method: as §1

monochoria (Mo) = assay: as above; details: 100 g of the active ingredient per 10 ares, 21st day after the application, index 0-5 of Table 47;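 note: grade of growth control; 5 = at least 90%; 4 = 70 to 90%; 3 = 50 to 70%; 2 = 30 to 50%; 1 = 10 to 30%; 0 = under 10%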
Summary of the method: as §1

Digitaria ciliaris (Di) = assay: Test Example 2: herbicidal effects by upland field soil treatment; details: 100 g of the active ingredient per 10 ares, 21st day after the application, index 0-5 of Table 47;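 note: grade of growth control; 5 = at least 90%; 4 = 70 to 90%; 3 = 50 to 70%; 2 = 30 to 50%; 1 = 10 to 30%; 0 = under 10%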
Excerpt: (§2) (Test on Herbicidal Effects by Upland Field Soil Treatment)

barnyardgrass (Ec) [2] = assay: as above; details: 100 g of the active ingredient per 10 ares, 21st day after the application, index 0-5 of Table 47
Excerpt: as §2

[3] = system: common lambsquarters (Ch); assay: as above; details: 100 g of the active ingredient per 10 ares, 21st day after the application, index 0-5 of Table 47
Excerpt: as §2

pale smartweed (Po) [4] = assay: as above; details: 100 g of the active ingredient per 10 ares, 21st day after the application, index 0-5 of Table 47
Excerpt: as §2

rice flatsedge (Ci) [5] = assay: as above; details: 100 g of the active ingredient per 10 ares, 21st day after the application, index 0-5 of Table 47
Excerpt: as §2

slender amaranth (Am) [6] = assay: as above; details: 100 g of the active ingredient per 10 ares, 21st day after the application, index 0-5 of Table 47
Excerpt: as §2

Diaitaria ciliaris (Di) = assay: Test Example 3: herbicidal effects by upland field foliage treatment; design: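 grade of growth control; 5 = at least 90%; 4 = 70 to 90%; 3 = 50 to 70%; 2 = 30 to 50%; 1 = 10 to 30%; 0 = under 10%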; details: 100 g of the active ingredient per 10 ares, evaluated on the 14th day after treatment
Summary of the method: (§3)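 Two-week-old greenhouse seedlings, raised in sand-filled pots (120 cm^2) with seed covered by soil, receive a foliar application. Effects are then evaluated by standard grades 14 days later, plants remaining in the greenhouse meanwhile.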

barnyardgrass (Ec) [7] = assay: as above; design: scale not given here; details: 100 g of the active ingredient per 10 ares, evaluated on the 14th day after treatment
Summary of the method: as §3

[8] = system: common lambsquarters (Ch); assay: as above; design: scale not given here; details: 100 g of the active ingredient per 10 ares, evaluated on the 14th day after treatment
Summary of the method: as §3

pale smartweed (Po) [9] = assay: as above; design: scale not given here; details: 100 g of the active ingredient per 10 ares, evaluated on the 14th day after treatment
Summary of the method: as §3

rice flatsedge (Ci) [10] = assay: as above; design: scale not given here; details: 100 g of the active ingredient per 10 ares, evaluated on the 14th day after treatment
Summary of the method: as §3

slender amaranth (Am) [11] = assay: as above; design: scale not given here; details: 100 g of the active ingredient per 10 ares, evaluated on the 14th day after treatment
Summary of the method: as §3

cotton (Go) = assay: Test Example 4: crop plant selectivity by upland field soil treatment (cotton), phytotoxicity; design: scale not given here; details: dose 6.3 g ai/10 a, evaluated 21st day after application
Description: (§4) (Test on Crop Plant Selectivity by Upland Field Soil Treatment)
(§5) In a plastic pot (surface area: 600 cm^2) filled with sand, cotton (Go), Diaitaria ciliaris (Di), green foxtail (Se), pale smartweed (Po), slender amaranth (Am), common lambsquarters (Ch) and China jute (Ab) were sown and covered with soil. […] The plants were then cultured in a green house, and the evaluation of the herbicidal effects and phytotoxicity was conducted on the 21st day after the application in accordance with the standards as identified in Table 47. Symbol—represents “not tested”.

China jute (Ab) [12] = assay: Test Example 4: crop plant selectivity by upland field soil treatment (cotton), herbicidal effects; design: scale not given here; details: dose 6.3 g ai/10 a, evaluated 21st day after application
Description: as §4, §5

[13] = system: common lambsquarters (Ch); assay: as above; design: scale not given here; details: dose 6.3 g ai/10 a, evaluated 21st day after application
Description: as §4, §5

green foxtail (Se) [14] = assay: as above; design: scale not given here; details: dose 6.3 g ai/10 a, evaluated 21st day after application
Description: as §4, §5

pale smartweed (Po) [15] = assay: as above; design: scale not given here; details: dose 6.3 g ai/10 a, evaluated 21st day after application
Description: as §4, §5

slender amaranth (Am) [16] = assay: as above; design: scale not given here; details: dose 6.3 g ai/10 a, evaluated 21st day after application
Description: as §4, §5

soybean (Gl) = assay: Test Example 6: crop plant selectivity by upland field soil treatment (soybean), phytotoxicity; design: scale not given here; details: dose 6.3 g ai/10a, 21st day after application
Description: as §4
(§6) In a plastic pot (surface area: 600 cm^2) filled with sand, soybean (Gl), Diaitaria ciliaris (Di), green foxtail (Se), Johnsongrass (So), pale smartweed (Po), slender amaranth (Am), common lambsquarters (Ch) and China jute (Ab) were sown and covered with soil. […] The plants were then cultured in a green house, and the evaluation of the herbicidal effects and phytotoxicity was conducted on the 21st day after the application in accordance with the standards as identified in Table 47. Symbol—represents “not tested”.

China jute (Ab) [17] = assay: Test Example 6: crop plant selectivity by upland field soil treatment (soybean), herbicidal effects; design: scale not given here; details: dose 6.3 g ai/10a, 21st day after application
Description: as §4, §6

[18] = system: common lambsquarters (Ch); assay: as above; design: scale not given here; details: dose 6.3 g ai/10a, 21st day after application
Description: as §4, §6

green foxtail (Se) [19] = assay: as above; design: scale not given here; details: dose 6.3 g ai/10a, 21st day after application
Description: as §4, §6

pale smartweed (Po) [20] = assay: as above; design: scale not given here; details: dose 6.3 g ai/10a, 21st day after application
Description: as §4, §6

slender amaranth (Am) [21] = assay: as above; design: scale not given here; details: dose 6.3 g ai/10a, 21st day after application
Description: as §4, §6

corn (Ze) = assay: Test Example 7: crop plant selectivity by upland field soil treatment (corn), phytotoxicity; design: scale not given here; details: dose 6.3 g ai/10a, 21st day after application
Description: as §4
(§7) In a plastic pot (surface area: 600 cm^2) filled with sand, corn (Ze), green foxtail (Se), pale smartweed (Po), slender amaranth (Am), common lambsquarters (Ch) and China jute (Ab) were sown and covered with soil. […] The plants were then cultured in a green house, and the evaluation of the herbicidal effects and phytotoxicity was conducted on the 21st day after the application in accordance with the standards as identified in Table 47.

China jute (Ab) [22] = assay: Test Example 7: crop plant selectivity by upland field soil treatment (corn), herbicidal effects; design: scale not given here; details: dose 6.3 g ai/10a, 21st day after application
Description: as §4, §7

[23] = system: common lambsquarters (Ch); assay: as above; design: scale not given here; details: dose 6.3 g ai/10a, 21st day after application
Description: as §4, §7

green foxtail (Se) [24] = assay: as above; design: scale not given here; details: dose 6.3 g ai/10a, 21st day after application
Description: as §4, §7

pale smartweed (Po) [25] = assay: as above; design: scale not given here; details: dose 6.3 g ai/10a, 21st day after application
Description: as §4, §7

slender amaranth (Am) [26] = assay: as above; design: scale not given here; details: dose 6.3 g ai/10a, 21st day after application
Description: as §4, §7

CCOc1cc(-c2ccc(C(F)(F)F)n(C)c2=O)c(F)cc1Cl [1-150]
1: Phytotoxicity Gl (soybean (Gl)) | Phytotoxicity Ze (corn (Ze))
5: Herbicidal effects Ec (barnyardgrass (Ec) [1]) | Herbicidal effects Sc (bulrush (Sc)) | Herbicidal effects Mo (monochoria (Mo)) | Herbicidal effects Di (Digitaria ciliaris (Di)) | Herbicidal effects Ec (barnyardgrass (Ec) [2]) | Herbicidal effects Ch [3] | Herbicidal effects Po (pale smartweed (Po) [4]) | Herbicidal effects Ci (rice flatsedge (Ci) [5]) | Herbicidal effects Am (slender amaranth (Am) [6]) | Herbicidal effects Di (Diaitaria ciliaris (Di)) | Herbicidal effects Ec (barnyardgrass (Ec) [7]) | Herbicidal effects Ch [8] | Herbicidal effects Po (pale smartweed (Po) [9]) | Herbicidal effects Ci (rice flatsedge (Ci) [10]) | Herbicidal effects Am (slender amaranth (Am) [11]) | Herbicidal effects Ab (China jute (Ab) [12]) | Herbicidal effects Ch [13] | Herbicidal effects Se (green foxtail (Se) [14]) | Herbicidal effects Po (pale smartweed (Po) [15]) | Herbicidal effects Am (slender amaranth (Am) [16]) | Herbicidal effects Ab (China jute (Ab) [17]) | Herbicidal effects Ch [18] | Herbicidal effects Se (green foxtail (Se) [19]) | Herbicidal effects Po (pale smartweed (Po) [20]) | Herbicidal effects Am (slender amaranth (Am) [21]) | Herbicidal effects Ab (China jute (Ab) [22]) | Herbicidal effects Ch [23] | Herbicidal effects Se (green foxtail (Se) [24]) | Herbicidal effects Po (pale smartweed (Po) [25]) | Herbicidal effects Am (slender amaranth (Am) [26])
0: Phytotoxicity Go (cotton (Go))
